Laboratory results published in US20130053336A1, “TREATMENT OF CHLAMYDIACEAE INFECTIONS BY MEANS OF BETA-LACTAMS” (priority 2010, published 2013).
In brackets after ≈: the same amount, converted by molar mass. Where a name gives a salt, the structure may show the parent alone. Read-outs that look alike come from different tables or passages of the source.

How the values were obtained:
Type in all cases: cell-based
[1] = system: Cells Infected with Chlamydia trachomatis serovar L2; experiment: Cytotoxicity of β-lactams
Procedure: (§1) It was first sought to verify whether other molecules of the β-lactam family could induce in vitro the same abnormal and noninfectious forms of Chlamydia trachomatis as that produced in the presence of penicillin G. Titration experiments were performed on the infectious ability of bacteria from infected cells treated with different β-lactams. Cytotoxicity and minimum bactericidal concentration (MBC) were determined for each of these molecules. It was also verified whether all of these β-lactams have bactericidal action on persistent forms of Chlamydia trachomatis produced in vitro under the effect of IFN-γ.

[2] = system: Chlamydia trachomatis serovar L2; experiment: Minimum bactericidal concentration (titration of infectious ability of bacteria from treated infected cells)
Procedure: as §1

[3] = system: Chlamydia trachomatis L2 serovar 16S rRNA; experiment: 16S rRNA expression by RT-PCR; details: 100 hpi
Excerpt: HeLa cells were infected with the Chlamydia trachomatis L2 serovar and treated or not treated with penicillin G at 3 hpi. At 100 hpi, the cells were collected and the RNA extracted carefully to avoid DNA contamination. Half of the isolated RNA was used for reverse transcription. The RNA and cDNA were amplified by PCR with primers for 16S (bacterial) and 18S (eukaryotic) rRNA in order to study bacterial activity and to verify cDNA quality and quantity. PCR of the RNA is used to verify the absence of DNA contamination. It also indicates the absence of contaminant in the PCR. […] Roughly 1×10^5 HeLa cells were infected and exposed or not exposed to penicillin G, as described above. At 100 hpi, total RNA were isolated using the RNeasy Plus Mini Kit (Qiagen, Hilden, Germany). The samples were treated with DNase I for 1 hour at 37° C. The enzyme was then denatured at 70° C. for 10 min. The RNA were reverse-transcribed into cDNA using random hexamer primers and AffinityScript Multiple Temperature Reverse Transcriptase (Agilent, Santa Clara, Calif., USA) and by following the manufacturer's instructions for RT-PCR. cDNA and RNA were amplified by PCR with Tag Polymerase (Invitrogen, Carlsbad, Calif., USA) in order to verify the absence of DNA contamination. The primers used to amplify 16S rRNA are: A semi-quantitative analysis of the PCR products was carried out by agarose gel electrophoresis and UV detection.

[4] = system: Chlamydia trachomatis inclusions; experiment: Fusion of lysosomes with inclusions (cathepsin D, LysoTracker, confocal microscopy); details: HeLa, 24 hpi
[5] = system: Chlamydia trachomatis serovar L2; experiment: Development and morphology of inclusions in infected HeLa cells (microscopy); details: infected HeLa cells, videomicroscopy / culture for 4 days
Procedure: HeLa cells were infected with Chlamydia trachomatis serovar L2 and treated with IFN-γ (100 ng/ml), penicillin G (100 U/ml) or gentamicin ([…]). At various times after infection (hours post-infection (hpi)), the cells were fixed and stained with an antibody against Chlamydia sp. (green in the original figure) and with Hoechst (blue in the original figure). The infected HeLa cells treated with penicillin G have abnormal bodies that grow and that are phenotypically quite different from those formed during treatment with IFN-γ. The bodies formed with penicillin G are appreciably different from “classic” persistent bodies. To examine the effects of penicillin G on cell infection with Chlamydia, the host cells were cultivated up to 70% confluence without antibiotics, and then were infected with C. trachomatis strain […]. muridarum at 1 IFU. The infections were carried out at 37° C. for 90 minutes with centrifugation, followed by a washing of extracellular bacteria. At 3 hpi, after the washings, the culture medium was replaced with medium containing either 25 μg/ml gentamicin or 1-100 IU/ml penicillin G. At regular intervals after treatment with penicillin G, the cultures were either fixed in 4% neutral buffered PFA for 30 minutes to be prepared for confocal microscopy, or collected to determine the infectivity of the progeny bacteria, according to the previously described method (Verbeke, P. et al. PLoS Pathog 2:e45, 2006). HeLa cells cultured in monolayers on slides were infected with serovar L2 with an IFU of 1, as described above (Verbeke, P. et al. PLoS Pathog 2:e45, 2006). Three hours after the infection, the medium was removed and replaced with culture medium containing 500 IU/ml (final concentration) recombinant human IFN-γ.

[6] = minimum bactericidal concentration, read-out: MBC
[7] = second line of the MBC cell, read-out: MBC, bound in parentheses below the value
[8] = printed as a concentration bound

Molecule | Cytotox. ([1]; given as 0) | MBC [2, 6] [µM] | MBC [2, 7] [µM] | other results
Cc1onc(-c2ccccc2Cl)c1C(=O)N[C@@H]1C(=O)N2[C@@H]1SC(C)(C)[C@@H]2C(=O)O [Cloxacillin sodium salt hydrate] | 0 | 3 | > 1 | 
C[C@@H](O)[C@H]1C(=O)N2C(C(=O)O)=C(SCCN=CN)C[C@H]12 [Imipenem monohydrate] | 0 | 300 | > 100 | 
CC1=C(C(=O)O)N2C(=O)[C@@H](NC(=O)[C@H](N)c3ccc(O)cc3)[C@H]2SC1 [Cefadroxil] | 0 | 10 (≈ 3.63 µg/mL) | > 3 | 
CC1(C)S[C@@H]2[C@H](/N=C/N3CCCCCC3)C(=O)N2[C@H]1C(=O)O [Mecillinam] | 0 | 3 (≈ 0.976 µg/mL) | > 1 | 
CC1(C)S[C@@H]2[C@H](NC(=O)[C@H](N)c3ccc(O)cc3)C(=O)N2[C@H]1C(=O)O [Amoxicillin trihydrate] | 0 | 0.3 | > 0.1 | 
CC1(C)[C@H](C(=O)O)N2C(=O)C[C@H]2S1(=O)=O [Sulbactam sodium] |  |  |  | MBC [2]: 10 µM; MBC ([2]; read-out: MBC, bound in parentheses below the value): > 3 µM
CC1(C)S[C@@H]2[C@H](NC(=O)COc3ccccc3)C(=O)N2[C@H]1C(=O)O [Penicillin V potassium salt] | 0 | 0.3 | > 0.1 | 
C=CC1=C(C(=O)O)N2C(=O)[C@@H](NC(=O)/C(=N\OCC(=O)O)c3csc(N)n3)[C@H]2SC1 [Cefixime trihydrate] |  | 300 | > 100 | Cytotox. [1, 8]: >400 µM
O=C(O)[C@H]1/C(=C/CO)O[C@@H]2CC(=O)N21 [Potassium clavulanate] |  | 1 | > 0.3 | Cytotox. [1, 8]: >50 µM
C[C@]1(Cn2ccnn2)[C@H](C(=O)O)N2C(=O)C[C@H]2S1(=O)=O [Tazobactam sodium salt] | 0 | 30 | > 10 | 
gentamicin |  |  |  | 16S rRNA expression in infected cells [3]: amplified
IFN-γ: Recombinant human IFN-γ, a well-known inducer of persistence (protein, UniProt P01579 24-161, looked up) Interferon gamma: QDPYVKEAENLKKYFNAGHSDVADNGTLFLGILKNWKEESDRKIMQSQIVSFYFKLFKNFKDDQSIQKSVETIKEDMNVKFFNSNKKKRDDFEKLTNYSVTDLNVQRKAIHELIQVMAELSPAAKTGKRKRSQMLFRG |  |  |  | localization of cathepsin D in inclusions [4]: excluded from normal and persistent inclusions; 16S rRNA expression in infected cells [3]: amplified; growth of the bacterial inclusions [5]: remains constant
